{"source": "patent US11129823B2", "about": "(Aldeyra Therapeutics, Inc., priority 2016, dated 2021)", "key": {"[1]": {"test": "in vivo", "settings": "primates", "protocol": "To allow for continuous exposure, NS2 0.5% will be administered at a dose of 4 times per day in Group 1 and Group 2. Aldehydes at concentrations of 10 μM are cytotoxic in cell culture (Maeda et al., 2012, Nat Chem Biol. 8(2):170-8). […] In primates, a single dose of 0.5% NS2 results in anterior eye tissue concentrations that range from 17.6 μM just after dosing to 1.2 μM three hours post dosing."}, "[2]": {"test_system": "ocular inflammation", "settings": "cited from earlier work"}, "[3]": {"test_system": "patients with active noninfectious anterior uveitis", "test": "Phase II randomized, investigator-masked, comparator-controlled trial of NS2 eye drops in anterior uveitis", "type": "in vivo, human", "description": "Group 2 patients will alternate doses of NS2 and Pred Forte®. All patients will be instructed to maintain at least one hour between any two doses. Patients will be followed for up to 8 weeks and monitored for safety and efficacy at six scheduled visits. Efficacy will be assessed by standard ophthalmic examination procedures and response to treatment will be graded according to established uveitis scales. […] Rescue therapy will consist of therapy dosed at the clinical discretion of the treating physician. Rescued patients will receive a follow-up assessment one week after rescue, and then they will be discontinued from the study. Study drug will be self-administered by the patient (or caregiver). Subjects will be instructed to administer study drug per the treatment arm they are assigned to. Subjects randomized to NS2 or Pred Forte® will begin with one drop in the study eye four (4) times per day. Subjects randomized to the NS2 and Pred Forte® group will be instructed to administer one drop of NS2 four (4) times per day alternating with Pred Forte® two (2) times per day. Pred Forte® will be tapered weekly and continued for up to five (5) weeks as described in Table 1. Based the pre-clinical activity of NS2 in diminishing TH1 cytokines as well as ocular inflammation in a pre-clinical model of uveitis, a Phase II trial of topical ocular NS2 was initiated in patients with active noninfectious anterior uveitis, a rare but serious autoimmune-like ocular disease that can lead to blindness. The design of the anterior uveitis Phase II trial was a randomized, parallel group, investigator-masked, comparator-controlled trial to evaluate the safety and efficacy of NS2 ophthalmic solution in patients with anterior uveitis. The trial assessed signs and symptoms of anterior uveitis including anterior chamber cell counts, which are utilized as the primary endpoints in registration studies of anterior uveitis. The study was conducted at 15 clinical sites in the US. […] Pred Forte® was dosed two (2) times daily and then tapered over a 4 week period. […] Prior to un-masking, one subject in the Pred Forte® group was removed from the ITT population for a history of ovarian cancer within the past 5 years, which met exclusion criteria. […] Patients were followed for 8 weeks and monitored for safety and efficacy at six scheduled visits. Efficacy was assessed by standard ophthalmic examination procedures including slit lamp examination and response to treatment was graded according to established uveitis scales. The visit schedule included a screening randomization visit, a day 4 telephone follow-up visit, and clinic visits at week 1, 2, 4, and 8. […] Rescued patients were followed through the week 8 end of study visit."}, "[4]": {"test": "9-month dog study with QID (OU) topical dosing", "type": "in vivo", "protocol": "(§1) The proposed proof of concept study will use the 0.5% dose level of NS2. This dose was selected based on the Phase 1 clinical study results under IND 104,497 and a 9-month dog study with QID (OU) dosing at 0.5%, 0.25%, and 0.1% (w/v). […] Based on the safety profile of the 9-month dog study where 0.5% NS2 was administered QID topically and the 7 day Phase 1 clinical study, a maximum treatment duration of 6-weeks was proposed."}, "[5]": {"test_system": "patients with allergic conjunctivitis", "test": "Phase II clinical trial of topical ocular NS2 in allergic conjunctivitis", "type": "in vivo, human", "settings": "after a single eye drop", "description": "Based on the proposed role of aldehydes in mediating inflammation, in addition to the pre-clinical activity of NS2 in reducing IL-5 and other TH2 cytokines, a Phase II clinical trial of a single dose of topical ocular NS2 was initiated in patients with allergic conjunctivitis, and positive results were obtained from that trial in February 2016. The trial design and data from that trial have been reported previously. […] The positive clinical effects of NS2 continued […]."}, "[6]": {"test_system": "TH1 and TH2 inflammatory cytokines, IL-10", "settings": "systemically administered; cited from earlier work"}, "[7]": {"test": "Phase 1 clinical study, 7 day QID topical dosing", "type": "in vivo, human", "protocol": "as §1"}}, "data": [{"smiles": "CC(C)(O)c1nc2ccc(Cl)cc2cc1N", "note": "[NS2]", "values": [{"measurement": "anterior eye tissue concentration", "setting": "[1]", "result": 17.6, "unit": "µM"}, {"measurement": "concentration at 3 h", "setting": "[1]", "result": 1200, "unit": "nM"}, {"measurement": "activity versus topical ocular corticosteroid administration", "setting": "[2]", "result": "compared favorably"}, {"measurement": "frequency of ocular stinging and burning", "setting": "[3]; NS2 treated groups", "result": "increased frequency"}, {"measurement": "effects on anterior chamber cell counts", "setting": "[3]; anterior uveitis population", "result": "clinically meaningful effects"}, {"measurement": "tolerability", "setting": "[3]; anterior uveitis population, 0.5% drops 4 times daily, 6 weeks", "result": "generally well tolerated"}, {"measurement": "rescue medication required, proportion of patients", "setting": "[3]; during the study", "result": 20, "unit": "%"}, {"measurement": "safety concerns (ocular exam scores, intra-ocular pressure, corneal thickness, visual acuity)", "setting": "[3]; during the study", "result": "no safety concerns"}, {"measurement": "subjects withdrawn for an adverse event of stinging", "setting": "[3]; in vivo", "result": "One"}, {"measurement": "ACC improvement of at least 1 grade, proportion of patients with successful response", "setting": "[3]; time point not given", "result": 53, "unit": "%"}, {"measurement": "reducing inflammatory cell count in the anterior chamber of the eye versus standard of care corticosteroid", "setting": "[3]; topical ocular", "result": "statistically indistinguishable from standard of care corticosteroid administration"}, {"measurement": "grade 0 ACC (anterior chamber cell count) treatment response, proportion of patients", "setting": "[3]; week 2 study visit, mITT population", "result": 33, "unit": "%"}, {"measurement": "sustained grade 0 ACC treatment response, proportion of patients", "setting": "[3]; week 8 study visit, mITT population", "result": 40, "unit": "%"}, {"measurement": "macroscopic or microscopic evaluations", "setting": "[4]; 9-month, QID (OU) at 0.5%, 0.25%, 0.1% (w/v)", "result": "no abnormal findings"}, {"measurement": "tolerability", "setting": "[4]; dog, in vivo", "result": "well tolerated"}, {"measurement": "ocular itching and tearing", "setting": "[5]", "result": "significantly reduced"}, {"measurement": "IL-10 (anti-inflammatory cytokine)", "setting": "[6]", "result": "up-regulating"}, {"measurement": "levels of TH1 and TH2 inflammatory cytokines", "setting": "[6]", "result": "significantly lowered"}, {"measurement": "tolerability", "setting": "[7]; 0.5% NS2 group, 7 day QID dosing", "result": "well tolerated"}, {"measurement": "concentration at 7 day", "setting": "[7]; human, plasma, topical, 0.5% NS2, 7 day QID dosing, detection limit, each subject, read-out: plasma levels of NS2", "result": "< 5", "unit": "ng/mL"}]}]}
